Key:
[1] = Stability confirmation test (impurity formation during storage under severe conditions, liquid chromatography); assay type: physicochemical
Protocol: The stability test was carried out for the acid addition salts prepared in the Examples to evaluate the degree to which impurities were formed during storage under severe conditions (moisture-proof condition and high-humidity exposure condition). The results of the stability test under the moisture-proof condition were shown in Table 2 below, and the results of the stability test under the high-humidity exposure condition were shown in Table 3 below. For the stability test, vials containing 10 mg of each sample which was precisely weighed and taken were prepared in the planned quantity, and they were stored by dividing into the moisture-proof condition (60° C. and less than 10% relative humidity) and under the high-humidity exposure condition (60° C. and 95% relative humidity). However, under the high-humidity exposure condition, a stopper of the vial was not used to keep so that the sample is in sufficient contact with a moisture in the air. At a fixed point of time after the initiation of the test, two vials per point of time were taken (number of samples per test n=2). 10 ml of methanol was added to each vial to dissolve the sample, which was then centrifuged. The resulting supernatant was analyzed using a liquid chromatography. The peak area was determined by integration for all detected peaks, and the relative peak area for the main component and the total impurity was calculated and expressed as an average value.

Solubility test in water = assay type: physicochemical; settings: deionized water, thermodynamic from solid
Protocol: For the solubility test in water, a sample of less than 10 mg was first precisely weighed and taken, and placed into a vial, to which 50 μl of deionized water was added, shaking for 30 seconds and ultrasonic shaking for 1 minute were carried out, and these processes were repeated several times. The water solubility was calculated by measuring the amount of water used to dissolve all the samples.

[2] = high-humidity exposure condition (60° C. and 95% relative humidity), After 1 week
[3] = high-humidity exposure condition (60° C. and 95% relative humidity), After 2 weeks
[4] = high-humidity exposure condition (60° C. and 95% relative humidity), After 4 weeks
[5] = high-humidity exposure condition (60° C. and 95% relative humidity), Initial
[6] = moisture-proof condition (60° C. and less than 10% relative humidity), After 2 weeks
[7] = moisture-proof condition (60° C. and less than 10% relative humidity), After 4 weeks
[8] = moisture-proof condition (60° C. and less than 10% relative humidity), Initial

| Structure (SMILES) | Peak area of main component (%) [1, 2] [%] | Peak area of total impurities (%) [1, 2] [%] | Peak area of main component (%) [1, 3] [%] | Peak area of total impurities (%) [1, 3] [%] | Peak area of main component (%) [1, 4] [%] | Peak area of total impurities (%) [1, 4] [%] | Peak area of main component (%) [1, 5] [%] | Peak area of total impurities (%) [1, 5] [%] | Peak area of main component (%) [1, 6] [%] | Peak area of total impurities (%) [1, 6] [%] | Peak area of main component (%) [1, 7] [%] | Peak area of total impurities (%) [1, 7] [%] | Peak area of main component (%) [1, 8] [%] | Peak area of total impurities (%) [1, 8] [%] | solubility (Solubility test in water) [µg/mL] |
| --- | --- | --- | --- | --- | --- | --- | --- | --- | --- | --- | --- | --- | --- | --- | --- |
| CNCc1cn(S(=O)(=O)c2cccc(F)c2)c(-c2ccc(F)cc2F)c1OC.Cl [Example 1, 1-(5-(2,4-difluorophenyl)-1-((3-fluorophenyl)sulfonyl)-4-methoxy-1H-pyrrol-3-yl)-N-methylmethanamine hydrochloride] | 99.81 | 0.19 | 99.80 | 0.20 | 99.80 | 0.20 | 99.82 | 0.18 | 99.80 | 0.19 | 99.80 | 0.20 | 99.82 | 0.18 | 11100 |
| CNCc1cn(S(=O)(=O)c2cccc(F)c2)c(-c2ccc(F)cc2F)c1OC.O=C(O)CCC(=O)O [Example 2, 1-(5-(2,4-difluorophenyl)-1-((3-fluorophenyl)sulfonyl)-4-methoxy-1H-pyrrol-3-yl)-N-methylmethanamine succinate] | 99.56 | 0.44 | 99.53 | 0.47 | 99.47 | 0.54 | 99.55 | 0.45 | 99.61 | 0.39 | 99.55 | 0.45 | 99.55 | 0.45 | 7200 |
| CNCc1cn(S(=O)(=O)c2cccc(F)c2)c(-c2ccc(F)cc2F)c1OC.O=C(O)C(O)C(O)C(=O)O [Example 3, 1-(5-(2,4-difluorophenyl)-1-((3-fluorophenyl)sulfonyl)-4-methoxy-1H-pyrrol-3-yl)-N-methylmethanamine tartrate] | 99.48 | 0.52 | 99.43 | 0.57 | 99.23 | 0.77 | 99.52 | 0.48 | 99.54 | 0.46 | 99.48 | 0.52 | 99.52 | 0.48 | 6900 |
| CNCc1cn(S(=O)(=O)c2cccc(F)c2)c(-c2ccc(F)cc2F)c1OC.O=C(O)/C=C/C(=O)O [Example 4, 1-(5-(2,4-difluorophenyl)-1-((3-fluorophenyl)sulfonyl)-4-methoxy-1H-pyrrol-3-yl)-N-methylmethanamine fumarate] | 99.40 | 0.60 | 99.32 | 0.68 | 99.30 | 0.70 | 99.38 | 0.62 | 99.36 | 0.64 | 99.37 | 0.63 | 99.38 | 0.62 | 1730 to 2600 |
| CNCc1cn(S(=O)(=O)c2cccc(F)c2)c(-c2ccc(F)cc2F)c1OC [Preparation Example, 1-(5-(2,4-difluorophenyl)-1-((3-fluorophenyl)sulfonyl)-4-methoxy-1H-pyrrol-3-yl)-N-methylmethanamine] | – | – | – | – | – | – | – | – | – | – | – | – | – | – | < 160 |
